# How the values were obtained:
# ACKR3 = ACKR3 (Homo sapiens, UniProt P25106); experiment: ACKR3 β-arrestin recruitment assay (PathHunter, β-galactosidase complementation); type: cell-based; settings: for EC50: stable human ACKR3-β-arrestin-2-CHO cells, mean ± SEM, at least two independent experiments in duplicate; for Emax: read-out: ACKR3 β-arrestin % CXCL12 Emax ± SEM
# Procedure: (§1) Compounds were evaluated for agonist activity using a β-arrestin recruitment assay based on β-galactosidase complementation (PathHunter, DiscoverX). Stable human ACKR3-β-arrestin-2-CHO cells (DiscoverX) were plated into 96-well white-walled assay plates at 15,000 cells/well in Cell Plating Reagent 2 (DiscoveRx) and incubated at 37° C., 5% CO2 overnight. The next day, test compounds were prepared at 10× concentration in DPBS/1% DMSO and 10 μL was added to the cells. CXCL-12 was included as a positive agonist control. Following a 1.5 hr incubation at 37° C., 55 μL of detection reagent (prepared according to the manufacturer's specifications) was added to each well. The plate was incubated at room temperature for 1 hr, after which luminescence was measured at 1 sec/well using an EnSpire multimode plate reader (PerkinElmer). Relative luminescence units (RLU) were plotted against the log of compound concentration and data were fit to a three-parameter logistic curve to generate EC50 values (GraphPad Prism). EC50 and % Emax values are reported as means±SEM and are the result of at least two independent experiments performed in duplicate. The CXCR4 assay was run similarly except that human CXCR4-C2Cl2 cells (DiscoverX) were plated at 20,000 cells/well in Cell Plating Reagent 9. The next day, the media was removed and cells were incubated with Cell Plating Reagent 4 for 3 hrs, after which the assay was conducted as described above.
# human CXCR4 = target: T1, human CXCR4 (Homo sapiens, UniProt P61073); experiment: CXCR4 β-arrestin recruitment assay (PathHunter); type: cell-based; settings: human CXCR4-C2Cl2 cells, relative to CXCL-12
# T1 construct: host or cells: C2C12
# Procedure: as §1
# ACKR3, sequence (P25106 whole entry): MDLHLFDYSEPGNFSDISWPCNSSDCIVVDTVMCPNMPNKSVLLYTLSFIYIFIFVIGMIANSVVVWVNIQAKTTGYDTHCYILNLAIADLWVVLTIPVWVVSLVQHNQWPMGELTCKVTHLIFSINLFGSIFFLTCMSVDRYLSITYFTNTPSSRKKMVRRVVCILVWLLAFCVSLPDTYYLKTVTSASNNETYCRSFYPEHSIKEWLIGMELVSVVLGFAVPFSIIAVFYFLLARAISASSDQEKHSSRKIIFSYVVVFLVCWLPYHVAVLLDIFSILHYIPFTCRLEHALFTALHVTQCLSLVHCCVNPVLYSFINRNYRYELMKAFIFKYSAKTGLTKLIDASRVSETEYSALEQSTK
# T1 sequence (P61073 whole entry): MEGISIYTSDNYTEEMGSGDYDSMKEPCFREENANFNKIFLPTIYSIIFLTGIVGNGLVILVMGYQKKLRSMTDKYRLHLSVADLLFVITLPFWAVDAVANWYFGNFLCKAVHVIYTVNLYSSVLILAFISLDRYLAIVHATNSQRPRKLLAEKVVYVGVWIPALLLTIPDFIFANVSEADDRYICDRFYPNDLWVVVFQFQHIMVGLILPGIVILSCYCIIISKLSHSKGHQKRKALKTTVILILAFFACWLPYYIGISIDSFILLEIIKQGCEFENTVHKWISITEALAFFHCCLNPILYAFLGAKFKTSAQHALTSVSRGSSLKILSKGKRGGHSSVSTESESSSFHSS
Structure (SMILES),EC50 (ACKR3) [µM],CXCR4 β-arrestin % CXCL-12Emax (n = 2) (human CXCR4) [%],Emax (ACKR3) [%]
"CCCCCN1CCC(C(=O)c2cc3ccccc3[nH]2)CC1 [WW-19, 1H-indol-2-yl(1-pentylpiperidin-4-yl)methanone]",> 10,9,
CCCCCN1CCC(C(=O)c2cc3ccccc3n2CCCCC)CC1 [WW-20],1.77 ± 0.078,11,154 ± 7
"CCCCCN1CCN(Cc2cc3ccccc3[nH]2)CC1 [WW-21, 2-[(4-pentylpiperazin-1-yl)methyl]-1H-indole]",> 10,10,
"O=C(c1cc2ccccc2[nH]1)N1CCNCC12CC2 [WW-22, 2-(4,7-diazaspiro[2.5]oct-4-ylcarbonyl)-1H-indole]",> 10,4,
"CCCCCN1CCN(C(=O)c2cc3ccccc3[nH]2)C2(CC2)C1 [WW-23, 2-[(7-pentyl-4,7-diazaspiro[2.5]oct-4-yl)carbonyl]-1H-indole]",3.04 ± 0.13,11,156 ± 11
"CCCCCN1CCN(C(=O)c2cc3ccccc3n2CCCCC)C2(CC2)C1 [WW-24, 1-pentyl-2-[(7-pentyl-4,7-diazaspiro[2.5]oct-4-yl)carbonyl]-1H-indole]",6.05 ± 0.53,5,154 ± 17
"CCCCCN1CCN(C(=O)c2cc3ccccc3[nH]2)C(CC)C1 (centres unmarked) [WW-25, 2-[(2-ethyl-4-pentylpiperazin-1-yl)carbonyl]-1H-indole]",> 10,4,
"CC(C)(C)OC(=O)N1CC[C@H](NC(=O)c2cc3ccccc3[nH]2)C1 [WW-26, Tert-butyl (3S)-3-[(1H-indol-2-ylcarbonyl)amino]pyrrolidine-1-carboxylate]",> 10,9,
"CC(C)(C)OC(=O)N1CCCN(C(=O)c2cc3ccccc3[nH]2)CC1 [WW-27, tert-butyl 4-(1H-indol-2-ylcarbonyl)-1,4-diazepane-1-carboxylate]",> 10,4,
"CCCCCN1CCN(C(=O)c2cc3ccccc3[nH]2)CC1 [WW-28, 2-[(4-pentylpiperazin-1-yl)carbonyl]-1H-indole]",> 10,11,
"CCCCCN1CC[C@H](NC(=O)c2cc3ccccc3[nH]2)C1 [WW-29, N-[(3S)-1-pentylpyrrolidin-3-yl]-1H-indole-2-carboxamide]",1.92 ± 0.056,15,145 ± 4
"CCCCCN1CCCN(C(=O)c2cc3ccccc3[nH]2)CC1 [WW-30, 2-[(4-pentyl-1,4-diazepan-1-yl)carbonyl]-1H-indole]",> 10,7,
"NC1CN(C(=O)c2cc3ccccc3[nH]2)C1 [WW-31, 1-(1H-indole-2-ylcarbonyl)azetidin-3-amine]",> 10,7,
"CCCCCNC1CN(C(=O)c2cc3ccccc3[nH]2)C1 [WW-32, 1-(1H-indole-2-ylcarbonyl)-N-pentylazetidin-3-amine]",> 10,9,
"O=C(N[C@H]1CCN(c2nccn3cccc23)C1)c1cc2ccccc2[nH]1 [WW-33, N-[(3S)-1-pyrrolo[1,2-a]pyrazin-1-ylpyrrolidin-3-yl]-1H-indole-2-carboxamide]",0.377 ± 0.009,6,150 ± 3
"CCCCCN1CC[C@H](NC(=O)c2cc3cc(OC)c(OC)c(OC)c3[nH]2)C1 [WW-43, 5,6,7-Trimethoxy-N-[(3S)-1-pentylpyrrolidin-3-yl]-1H-indole-2-carboxamide]",> 10,10,
"CCCCCN1CC[C@H](NC(=O)c2cc3ccc(-c4ccc(F)cc4)cc3[nH]2)C1 [WW-44, 6-(4-Fluorophenyl)-N-[(3S)-1-pentylpyrrolidin-3-yl]-1H-indole-2-carboxamide]",4.14 ± 0.11,26,110 ± 7
"CCCCCN1CC[C@H](NC(=O)c2cc3ccc(-c4ccc(OC)cc4)cc3[nH]2)C1 [WW-45, 6-(4-methoxyphenyl)-N-[(3S)-1-pentylpyrrolidin-3-yl]-1H-indole-2-carboxamide]",> 10,6,

Structure (SMILES),EC50 (ACKR3) [µM],CXCR4 β-arrestin % CXCL-12Emax (n = 2) (human CXCR4) [%],Emax (ACKR3) [%]
"CCCCCN1CC[C@H](NC(=O)c2cc3cccc(-c4ccc(F)cc4)c3[nH]2)C1 [WW-46, 7-(4-Fluorophenyl)-N-[(3S)-1-pentylpyrrolidin-3-yl]-1H-indole-2-carboxamide]",0.504 ± 0.062,7,119 ± 8
"CCCCCN1CC[C@H](NC(=O)c2cc3c(OC)c(OC)c(OC)cc3[nH]2)C1 [WW-47, 4,5,6-Trimethoxy-N-[(3S)-1-pentylpyrrolidin-3-yl]-1H-indole-2-carboxamide]",> 10,18,
"C/C=C1/CN(CCCCC)CC[C@H]1C(=O)c1cc2cc(Cl)ccc2[nH]1 [WW-54, (5-chloro-1H-indol-2-yl)[(3E,4R)-3-ethylidene-1-pentylpiperidin-4-yl]methanone]",1.96 ± 0.027,15,129 ± 4
"C/C=C1/CN(CCCCC)CC[C@H]1C(=O)c1cc2ccc(F)cc2[nH]1 [WW-55, [(3E,4R)-3-ethylidene-1-pentylpiperidin-4-yl](6-fluoro-1H-indol-2-yl)methanone]",5 ± 0.6,10,90 ± 1
"CCCCCN1CCC(C)(C(=O)c2cc3ccccc3[nH]2)CC1 [WW-57, 1H-Indole-2-yl(4-methyl-1-pentylpiperidin-4-yl)methanone]",6.45 ± 0.72,5,96 ± 4
"C/C=C1/CN(CCCCN)CC[C@H]1C(=O)c1cc2ccccc2[nH]1 [WW-58, (3E,4R)-(3-ethylidene-1-(4-aminobutyl)piperidin-4-yl)(1H-indol-2-yl)methanone]",> 10,3,
"C/C=C1/CN(CCCCCN)CC[C@H]1C(=O)c1cc2ccccc2[nH]1 [WW-59, (3E,4R)-(3-ethylidene-1-(5-aminopentyl)piperidin-4-yl)(1H-indol-2-yl)methanone]",> 10,9,
"C/C=C1/CN(CCOCCN)CC[C@H]1C(=O)c1cc2ccccc2[nH]1 [WW-60, (3E,4R)-(3-ethylidene-1-(2-ethoxy-(2-aminoethyl))piperidin-4-yl)(1H-indol-2-yl)methanone]",> 10,11,
"C/C=C1/CN(Cc2ccc(OC)cc2)CC[C@H]1C(O)c1cc2ccccc2n1S(=O)(=O)c1ccccc1 (stereo partly drawn) [WW-61, [(3E,4R)-3-ethylidene-1-(4-methoxybenzyl)piperidin-4-yl][1-(phenylsulfonyl)-1H-indol-2-yl]methanol]",0.527 ± 0.13,10,156 ± 7
"C/C=C1/CN(CCCCCC)CC[C@H]1C(=O)c1cc2ccccc2[nH]1 [WW-62, [(3E,4R)-3-ethylidene-1-hexylpiperidin-4-yl](1H-indol-2-yl)methanone]",3.04 ± 0.32,5,137 ± 3
"C/C=C1/CN(CCCC(C)C)CC[C@H]1C(=O)c1cc2ccccc2[nH]1 [WW-63, [(3E,4R)-3-ethylidene-1-(4-methylpentyl)piperidin-4-yl](1H-indol-2-yl)methanone]",1.78 ± 0.16,15,152 ± 1
CCOC(=O)C(c1[nH]c2ccccc2c1C=O)C1CCN(S(=O)(=O)c2ccc(C)cc2)C/C1=N\O[Si](C)(C)C(C)(C)C (centres unmarked) [WW-64],> 10,16,
"CCOC(=O)C(c1[nH]c2ccccc2c1C=O)C1CCN(S(=O)(=O)c2ccc(C)cc2)C/C1=N\O (centres unmarked) [WW-65, ethyl (3-formyl-1H-indol-2-yl){(3Z)-3-(hydroxyamino)-1-[(4-methylphenyl)sulfonyl]piperidin-4-yl}acetate]",> 10,11,
"C/C=C1/CN(CCCCC)CC[C@H]1C(=O)c1cc2cc(C(C)=O)ccc2n1CCCCC [WW-66, 1-(2-{[(3E,4R)-3-ethylidene-1-pentylpiperidin-4-yl]carbonyl}-1-pentyl-1H-indol-5-yl)ethanone]",> 10,8,
"C/C=C1/CN(CCCCCCC)CC[C@H]1C(=O)c1cc2ccccc2[nH]1 [WW-67, [(3E,4R)-3-ethylidene-1-heptylpiperidin-4-yl](1H-indol-2-yl)methanone]",2.46 ± 0.27,12,135 ± 4
"C/C=C1/CN(CC2CCCCC2)CC[C@H]1C(=O)c1cc2ccccc2[nH]1 [WW-68, [(3E,4R)-1-(cyclohexylmethyl)-3-ethylidenepiperidin-4-yl](1H-indol-2-yl)methanone]",3.61 ± 0.39,8,136 ± 3
C/C=C1/CN(Cc2ccc(OC)cc2)CC[C@H]1C(O)c1cc2cc(-c3ccc(F)cc3)ccc2n1S(=O)(=O)c1ccccc1 (some centres unmarked) [WW-69],1.68 ± 0.3,11,79 ± 6
